Test results: patent publication US10106556B2, “Heterocyclic compound” (TAKEDA PHARMACEUTICAL COMPANY LIMITED, priority 2015, dated 2018)

Target: T1, His-hMAGL (recombinant polyhistidine tagged human MAGL protein) (Homo sapiens, UniProt Q99685)
T1 construct: made in house; host or cells: E. coli BL21(DE3)
T1 sequence (Q99685 1-303): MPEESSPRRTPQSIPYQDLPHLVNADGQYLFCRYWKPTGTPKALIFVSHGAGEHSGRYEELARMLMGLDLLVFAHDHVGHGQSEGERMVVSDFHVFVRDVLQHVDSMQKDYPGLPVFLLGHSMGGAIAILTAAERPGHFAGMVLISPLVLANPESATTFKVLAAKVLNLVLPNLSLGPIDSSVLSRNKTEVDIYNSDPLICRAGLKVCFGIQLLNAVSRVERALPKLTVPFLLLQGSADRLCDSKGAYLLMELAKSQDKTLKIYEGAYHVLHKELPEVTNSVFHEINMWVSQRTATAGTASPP
Test: Measurement of MAGL inhibitory activity (arachidonic acid production from 2-arachidonylglycerol, RapidFire-mass spectrometry)
Assay type: biochemical
Settings: MAGL inhibitory rate at 10 μM test compound; 60 min preincubation with His-hMAGL, 2-arachidonylglycerol substrate, 10 min reaction at room temperature
Description: Furthermore, acetonitrile (50 μL) containing 3 μM arachidonic acid-d8 (Cayman Chemical Company) was added and the mixture was stirred.
The amount of arachidonic acid in the obtained enzyme reaction mixture was calculated by measuring by RapidFire-mass spectrometry and correcting by the amount of arachidonic acid-d8. High Throughput online solid phase extraction was performed using RapidFire 300™ system (Agilent Technologies, Inc.). Samples were loaded on SPE C4 cartridge (Agilent Technologies, Inc.) and desalted with 0.2 (v/v) % acetic acid (Wako Pure Chemical Industries, Ltd.) in ultrapure water/acetonitrile (70/30, v/v) at a flow rate of 1.5 mL/min, eluted at a flow rate of 0.5 mL/min with 0.2 (v/v) % acetic acid dissolved in acetonitrile/ultrapure water (90/10, v/v), and injected into the mass spectrometry part. The injection needle was washed with ultrapure water (500 millisecond) and acetonitrile (500 millisecond) to minimize carry-over. […] The RapidFire300 system was controlled by RapidFire UI software version 3.6 (Agilent Technologies, Inc.).
The mass spectrometry of the resultant product was performed using API4000™ triple quadrupole mass spectrometer (AB SCIEX) equipped with an electrospray ion sauce (TurboIon Spray™) in a negative selected reaction monitoring (SRM) mode. The conditions of SRM are shown below. The parameters of the instrument were optimized as follows: capillary temperature 600° C., ion spray voltage −4.5 kV, collision gas 8, curtain gas 15 psi, ion source gas 1 60 psi, ion source gas 2 60 psi. The mass spectrometer was controlled by Analyst™ software version 1.5.1 (AB SCIEX). The peak area integration was analyzed using RapidFire integrator software version 3.6 (Agilent Technologies, Inc.).
MAGL inhibitory rate (%) was calculated according to the following calculation formula. (1−(arachidonic acid production amount of test compound addition group−arachidonic acid production amount of enzyme−free group)÷(arachidonic acid production amount of test compound-free group−arachidonic acid production amount of enzyme-free group))×100

Row | SMILES | inhibition at 10 µM
1 | O=C1COc2cc(F)c(C(=O)N3CC(OCc4ccc(Cl)cc4)C3)cc2N1 [Example 343, 6-((3-((4-chlorobenzyl)oxy)azetidin-1-yl)carbonyl)-7-fluoro-2H-1,4-benzoxazin-3(4H)-one] | 102%
2 | O=C1COc2cc(F)c(C(=O)N3CC(COc4ccc(F)c(C(F)(F)F)c4)C3)cc2N1 [Example 278, 7-fluoro-6-((3-((4-fluoro-3-(trifluoromethyl)phenoxy)methyl)azetidin-1-yl)carbonyl)-2H-1,4-benzoxazin-3(4H)-one] | 103%
3 | CC(Oc1ccc2cn[nH]c2c1)C1CN(C(=O)c2cc3c(cc2F)OCC(=O)N3)C1 (centres unmarked) [Example 299, 7-fluoro-6-((3-(1-(1H-indazol-6-yloxy)ethyl)azetidin-1-yl)carbonyl)-2H-1,4-benzoxazin-3(4H)-one] | 100%
4 | Cc1cc(Cl)ccc1OCC1CCN(C(=O)c2ccc3c(c2)NC(=O)CO3)CC1 [Example 37, 6-((4-((4-chloro-2-methylphenoxy)methyl)piperidin-1-yl)carbonyl)-2H-1,4-benzoxazin-3(4H)-one] | 101%
5 | CC(Oc1cc(F)ccc1F)C1CN(C(=O)c2cc3c(cc2F)OCC(=O)N3)C1 (centres unmarked) [Example 303, 6-((3-(1-(2,5-difluorophenoxy)ethyl)azetidin-1-yl)carbonyl)-7-fluoro-2H-1,4-benzoxazin-3(4H)-one] | 103%
6 | O=C1COc2cc(F)c(C(=O)N3CC(COc4ccc5c(c4Br)CCCC5)C3)cc2N1 [Example 286, 6-((3-(((1-bromo,-5,6,7,8-tetrahydronaphthalen-2-yl)oxy)methyl)azetidin-1-yl)carbonyl)-7-fluoro-2H-1,4-benzoxazin-3(4H)-one] | 98%
7 | N#Cc1ccc(Cl)cc1OCC1CN(C(=O)c2cc3c(cc2F)OCC(=O)N3)C1 [Example 137, 4-chloro-2-((1-((7-fluoro-3-oxo-3,4-dihydro-2H-1,4-benzoxazin-6-yl)carbonyl)azetidin-3-yl)methoxy)benzonitrile] | 99%
8 | CC(Oc1cccc(F)c1F)C1CN(C(=O)c2cc3c(cc2F)OCC(=O)N3)C1 (centres unmarked) [Example 302, 6-((3-(1-(2,3-difluorophenoxy)ethyl)azetidin-1-yl)carbonyl)-7-fluoro-2H-1,4-benzoxazin-3(4H)-one] | 102%
9 | Cc1cc(C)c(OCC2CN(C(=O)c3cc4c(cc3F)OCC(=O)N4)C2)cn1 [Example 142, 6-((3-(((4,6-dimethylpyridin-3-yl)oxy)methyl)azetidin-1-yl)carbonyl)-7-fluoro-2H-1,4-benzoxazin-3(4H)-one] | 102%
10 | N#Cc1cc(OCC2CN(C(=O)c3cc4c(cc3F)OCC(=O)N4)C2)ccc1Cl [Example 133, 2-chloro-5-((1-((7-fluoro-3-oxo-3,4-dihydro-2H-1,4-benzoxazin-6-yl)carbonyl)azetidin-3-yl)methoxy)benzonitrile] | 98%
11 | Cc1ccc(-c2cc(Cl)ccc2OCC2CN(C(=O)c3cc4c(cc3F)OCC(=O)N4)C2)cn1 [Example 190, 6-((3-((4-chloro-2-(6-methylpyridin-3-yl)phenoxy)methyl)azetidin-1-yl)carbonyl)-7-fluoro-2H-1,4-benzoxazin-3(4H)-one] | 102%
12 | O=C1COc2ccc(C(=O)N3CCC(COc4cccc5ccccc45)CC3)cc2N1 [Example 59, 6-((4-((1-naphthyloxy)methyl)piperidin-1-yl)carbonyl)-2H-1,4-benzoxazin-3(4H)-one] | 102%
13 | O=C1COc2cc(F)c(C(=O)N3CC(COc4cc(Cl)cc(Cl)c4)C3)cc2N1 [Example 127, 6-((3-((3,5-dichlorophenoxy)methyl)azetidin-1-yl)carbonyl)-7-fluoro-2H-1,4-benzoxazin-3(4H)-one] | 99%
14 | O=C1COc2cc(F)c(C(=O)N3CC(COc4ccccc4C4CC4)C3)cc2N1 [Example 168, 6-((3-((2-cyclopropylphenoxy)methyl)azetidin-1-yl)carbonyl)-7-fluoro-2H-1,4-benzoxazin-3(4H)-one] | 101%
15 | O=C1COc2cc(F)c(C(=O)N3CC(COc4ccc(OC(F)F)cc4)C3)cc2N1 [Example 270, 6-((3-((4-(difluoromethoxy)phenoxy)methyl)azetidin-1-yl)carbonyl)-7-fluoro-2H-1,4-benzoxazin-3(4H)-one] | 101%
16 | COc1cc(Cl)ccc1OCC1CN(C(=O)c2cc3c(cc2F)OCC(=O)N3)C1 [Example 115, 6-((3-((4-chloro-2-methoxyphenoxy)methyl)azetidin-1-yl)carbonyl)-7-fluoro-2H-1,4-benzoxazin-3(4H)-one] | 103%
17 | Cc1cc2c(cc1C(=O)N1CCC(COc3ccc(F)cc3Cl)CC1)NC(=O)CO2 [Example 89, 6-((4-((2-chloro-4-fluorophenoxy)methyl)piperidin-1-yl)carbonyl)-7-methyl-2H-1,4-benzoxazin-3(4H)-one] | 90%
18 | O=C1COc2cc(F)c(C(=O)N3CC(COc4ccc(Cl)cc4-c4ccc(Cl)cn4)C3)cc2N1 [Example 196, 6-((3-((4-chloro-2-(5-chloropyridin-2-yl)phenoxy)methyl)azetidin-1-yl)carbonyl)-7-fluoro-2H-1,4-benzoxazin-3(4H)-one] | 94%
19 | O=C1COc2cc(F)c(C(=O)N3CC(COc4ccc5cn[nH]c5c4)C3)cc2N1 [Example 157, 7-fluoro-6-((3-((1H-indazol-6-yloxy)methyl)azetidin-1-yl)carbonyl)-2H-1,4-benzoxazin-3(4H)-one] | 100%
20 | O=C1COc2cc(F)c(C(=O)N3CC(COc4ccc(-c5cccnc5)cc4F)C3)cc2N1 [Example 261, 7-fluoro-6-((3-((2-fluoro-4-(pyridin-3-yl)phenoxy)methyl)azetidin-1-yl)carbonyl)-2H-1,4-benzoxazin-3(4H)-one] | 98%
21 | O=C1COc2ccc(C(=O)N3CCC(C(F)(F)c4ccc(F)cc4)CC3)cc2N1 [Example 355, 6-((4-(difluoro(4-fluorophenyl)methyl)piperidin-1-yl)carbonyl)-2H-1,4-benzoxazin-3(4H)-one] | 101%
22 | O=C1COc2cc(F)c(C(=O)N3CC(OCc4ccc(Cl)cc4Cl)C3)cc2N1 [Example 324, 6-((3-((2,4-dichlorobenyzl)oxy)azetidin-1-yl)carbonyl)-7-fluoro-2H-1,4-benzoxazin-3(4H)-one] | 102%
23 | CC(Oc1ccc(F)c(F)c1)C1CN(C(=O)c2cc3c(cc2F)OCC(=O)N3)C1 (centres unmarked) [Example 304, 6-((3-(1-(3,4-difluorophenoxy)ethyl)azetidin-1-yl)carbonyl)-7-fluoro-2H-1,4-benzoxazin-3(4H)-one] | 99%
24 | O=C1COc2cc(F)c(C(=O)N3CC(COc4ccc5c(c4)CCCC5)C3)cc2N1 [Example 102, 7-fluoro-6-((3-((5,6,7,8-tetrahydronaphthalen-2-yloxy)methyl)azetidin-1-yl)carbonyl)-2H-1,4-benzoxazin-3(4H)-one] | 102%
25 | O=C1COc2ccc(C(=O)N3CCC(COc4ccccc4F)CC3)cc2N1 [Example 94, 6-((4-((2-fluorophenoxy)methyl)piperidin-1-yl)carbonyl)-2H-1,4-benzoxazin-3(4H)-one] | 97%
26 | Cc1cc(-c2cc(Cl)ccc2OCC2CN(C(=O)c3cc4c(cc3F)OCC(=O)N4)C2)ccn1 [Example 193, 6-((3-((4-chloro-2-(2-methylpyridin-4-yl)phenoxy)methyl)azetidin-1-yl)carbonyl)-7-fluoro-2H-1,4-benzoxazin-3(4H)-one] | 102%
